Results taken from the supplement of paper PMC10307832.

Experiments:
Experiment in all cases: relative viability (nuclei count vs DMSO), 5 days (fraction); higher = more cells survive
[1] = system: NCI-H1793
Procedure, shortened: (§1)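 Medians of duplicate plates are given as relative viability. That measure is the nuclei count in treated wells divided by the count in vehicle wells. Counts were taken on 4× images of lung cancer cell lines in 1536-well plates, 5 days after pin-tool dosing the day after seeding with one drug alone or a fixed anchor-drug dose plus five library-drug doses (not always all listed) in √10 steps.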

[2] = system: A-427
Procedure, shortened: as §1

[3] = system: LXF-289
Procedure, shortened: as §1

[4] = system: EMC-BAC-2
Procedure, shortened: as §1

[5] = system: NCI-H2009
Procedure, shortened: as §1

[6] = system: SK-MES-1
Procedure, shortened: as §1

[7] = system: NCI-H1944
Procedure, shortened: as §1

[8] = system: ABC-1
Procedure, shortened: as §1

[9] = system: SW 900
Procedure, shortened: as §1

[10] = system: NCI-H1993
Procedure, shortened: as §1

[11] = system: PC-3 [JPC-3]
Procedure, shortened: as §1

[12] = system: NCI-H596
Procedure, shortened: as §1

[13] = system: NCI-H3122
Procedure, shortened: as §1

[14] = system: HARA
Procedure, shortened: as §1

[15] = system: SW 1573
Procedure, shortened: as §1

[16] = system: SK-LU-1
Procedure, shortened: as §1

[17] = system: HOP-62
Procedure, shortened: as §1

[18] = system: NCI-H2228
Procedure, shortened: as §1

[19] = system: COR-L23
Procedure, shortened: as §1

[20] = system: NCI-H727
Procedure, shortened: as §1

[21] = system: NCI-H2170
Procedure, shortened: as §1

[22] = system: LK-2
Procedure, shortened: as §1

Which results are given for `O=C(O)c1ccc(-c2c[nH]c3ncc(-c4ccccc4)cc23)cc1C1CCCC1` + COc1cc2c(Oc3ccc(NC(=O)C4(C(=O)Nc5ccc(F)cc5)CC4)cc3F)ccnc2cc1OCCCN1CCOCC1 [Foretinib] (partner 0.25 µM)?
relative viability ([1]; first compound 0.04 µM): 0.66; relative viability ([1]; first compound 0.1265 µM): 0.75; relative viability ([1]; first compound 0.4 µM): 0.702; relative viability ([1]; first compound 1.265 µM): 0.602; relative viability ([2]; first compound 0.04 µM): 0.994; relative viability ([2]; first compound 0.1265 µM): 1.12; relative viability ([2]; first compound 0.4 µM): 1.01; relative viability ([2]; first compound 1.265 µM): 0.786; relative viability ([3]; first compound 0.04 µM): 0.972; relative viability ([3]; first compound 0.1265 µM): 0.939; relative viability ([3]; first compound 0.4 µM): 0.867; relative viability ([3]; first compound 1.265 µM): 0.543; relative viability ([4]; first compound 0.04 µM): 0.997; relative viability ([4]; first compound 0.1265 µM): 1.08; relative viability ([4]; first compound 0.4 µM): 0.97; relative viability ([4]; first compound 1.265 µM): 0.857; relative viability ([5]; first compound 0.04 µM): 1.22; relative viability ([5]; first compound 0.1265 µM): 1.22; relative viability ([5]; first compound 0.4 µM): 1.22; relative viability ([5]; first compound 1.265 µM): 0.968; relative viability ([6]; first compound 0.04 µM): 0.963; relative viability ([6]; first compound 0.1265 µM): 1.01; relative viability ([6]; first compound 0.4 µM): 0.918; relative viability ([6]; first compound 1.265 µM): 0.794; relative viability ([7]; first compound 0.04 µM): 0.923; relative viability ([7]; first compound 0.1265 µM): 0.988; relative viability ([7]; first compound 0.4 µM): 0.911; relative viability ([7]; first compound 1.265 µM): 0.807; relative viability ([8]; first compound 0.04 µM): 1.02; relative viability ([8]; first compound 0.1265 µM): 1.24; relative viability ([8]; first compound 0.4 µM): 1.04; relative viability ([8]; first compound 1.265 µM): 0.936; relative viability ([9]; first compound 0.04 µM): 0.921; relative viability ([9]; first compound 0.1265 µM): 0.839; relative viability ([9]; first compound 0.4 µM): 0.896; relative viability ([9]; first compound 1.265 µM): 0.824; relative viability ([10]; first compound 0.04 µM): 0.788; relative viability ([10]; first compound 0.1265 µM): 0.834; relative viability ([10]; first compound 0.4 µM): 0.759; relative viability ([10]; first compound 1.265 µM): 0.805; relative viability ([11]; first compound 0.04 µM): 1; relative viability ([11]; first compound 0.1265 µM): 1.14; relative viability ([11]; first compound 0.4 µM): 0.978; relative viability ([11]; first compound 1.265 µM): 0.61; relative viability ([12]; first compound 0.04 µM): 0.783; relative viability ([12]; first compound 0.1265 µM): 0.79; relative viability ([12]; first compound 0.4 µM): 0.919; relative viability ([12]; first compound 1.265 µM): 0.999; relative viability ([13]; first compound 0.04 µM): 0.968; relative viability ([13]; first compound 0.1265 µM): 0.913; relative viability ([13]; first compound 0.4 µM): 0.891; relative viability ([13]; first compound 1.265 µM): 0.87; relative viability ([14]; first compound 0.04 µM): 0.836; relative viability ([14]; first compound 0.1265 µM): 0.952; relative viability ([14]; first compound 0.4 µM): 0.811; relative viability ([14]; first compound 1.265 µM): 0.796; relative viability ([15]; first compound 0.04 µM): 0.977; relative viability ([15]; first compound 0.1265 µM): 0.901; relative viability ([15]; first compound 0.4 µM): 0.902; relative viability ([15]; first compound 1.265 µM): 0.791; relative viability ([16]; first compound 0.04 µM): 0.782; relative viability ([16]; first compound 0.1265 µM): 0.875; relative viability ([16]; first compound 0.4 µM): 0.705; relative viability ([16]; first compound 1.265 µM): 0.51; relative viability ([17]; first compound 0.04 µM): 1.09; relative viability ([17]; first compound 0.1265 µM): 1.21; relative viability ([17]; first compound 0.4 µM): 1.01; relative viability ([17]; first compound 1.265 µM): 0.815; relative viability ([18]; first compound 0.04 µM): 0.783; relative viability ([18]; first compound 0.1265 µM): 0.915; relative viability ([18]; first compound 0.4 µM): 0.871; relative viability ([18]; first compound 1.265 µM): 0.576; relative viability ([19]; first compound 0.04 µM): 1.02; relative viability ([19]; first compound 0.1265 µM): 1.19; relative viability ([19]; first compound 0.4 µM): 0.943; relative viability ([19]; first compound 1.265 µM): 0.636; relative viability ([20]; first compound 0.04 µM): 1.2; relative viability ([20]; first compound 0.1265 µM): 0.823; relative viability ([20]; first compound 0.4 µM): 0.754; relative viability ([20]; first compound 1.265 µM): 0.944; relative viability ([21]; first compound 0.04 µM): 0.994; relative viability ([21]; first compound 0.1265 µM): 1; relative viability ([21]; first compound 0.4 µM): 0.968; relative viability ([21]; first compound 1.265 µM): 0.777; relative viability ([22]; first compound 0.04 µM): 1.33; relative viability ([22]; first compound 0.1265 µM): 1.14; relative viability ([22]; first compound 0.4 µM): 1.13; relative viability ([22]; first compound 1.265 µM): 0.969
